Like-named read-outs stand apart in the source and are kept apart here.
System: Primary DRG cells
Test: Neurite outgrowth assay (group A), paclitaxel-induced neurotoxicity
Type: cell-based, C57BL/6 J mice
Details: for neuroprotection against paclitaxel-induced neurotoxicity: 1 µM compound; for activity at 1 µM: Mus musculus, read-out: Neurite outgrowth (%); for Neurite outgrowth (%) A-B (extent of protection): difference between compound 1 µM + paclitaxel 0.05 µM and paclitaxel 0.05 µM alone
Procedure: Compounds of this invention were evaluated using the neurite outgrowth assay as described in Chen et al., Scientific Reports, 7, 45366, DOI: 10.1038/srep45366 (2017).
Cell culture. For primary culture, dorsal root ganglia (“DRG”) were removed from 7-weeks-old C57BL/6 J mice and digested with 0.1% collagenase (Sigma-Aldrich, St. Louis, MO) for 1 hour, followed by 0.25% trypsin treatment for 25 minutes. The dissociated neuron cultures were plated at a density of 2.5×10^4 cells per well in a 96 well optics plates (CLS3614; Sigma-Aldrich) precoated with 1 mg/mL poly-D-lysine (A-003-M; Sigma-Aldrich) for 3 hours. Primary DRG cells were grown in DMEM-F12 (11320033; Gibco®, ThermoFisher Scientific, Waltham, MA) supplemented with 10% fetal bovine serum (FBS, 26140079; Gibco®, ThermoFisher). These cells were maintained at 37° C. in an environment containing 5% CO2.
Neurite outgrowth assay (group A). Primary DRG cells were incubated with one of the Example 2 compounds at 1 µM for 24 hours, and then treated with 0.05 µM paclitaxel for another 24 hours. After the paclitaxel treatment, the primary DRG cells were washed by PBS and then fixed with 4% paraformaldehyde (PFA, P6148; Sigma-Aldrich) for 15 minutes. The DRG cells thus fixed were permeabilized by 0.05% Triton X-100 in PBS for 20 minutes and blocked with 3% bovine serum albumin (BSA; Sigma-Aldrich, USA) at room temperature for 1 hour. Subsequently, DRG cells were stained with rabbit anti-β III tubulin (1:600; Cell Signaling, USA) and mouse anti-NeuN monoclonal antibody (1:400; Millipore, USA) overnight at 4° C. The samples were then washed by PBS and reacted with secondary antibodies (Alexa-488 and Alexa-594 1:600; Invitrogen, CA) at room temperature for 1 hour. For image acquisition and analysis of DRG neurite outgrowth, images of stained cells were automatically acquired using 10X objective by Image Xpress Micro wide field fluorescent microscope (Molecular Devices, USA). A control was obtained following the same procedure except that the DRG cells were not treated with a compound or paclitaxel. Neurite outgrowth was measured as a percentage of outgrowth as compared to the control.
The difference between A and B indicates an extent of protection provided by the compound.

[1] = DRG cells, 1 µM compound 24 h then 0.05 µM paclitaxel 24 h, % of untreated control

| Compound | neuroprotection against paclitaxel-induced neurotoxicity (0.05 µM paclitaxel) | activity at 1 µM [1] | Neurite outgrowth (%) A-B (extent of protection) | activity at 1 µM (24 h) | neurotoxicity to DRG neurite outgrowth (0.05 µM paclitaxel 24 h) | inhibition of DRG neurite outgrowth (0.05 µM paclitaxel, across experiments of Table 1) |
| --- | --- | --- | --- | --- | --- | --- |
| O=P(O)(O)CCN1CCC(Nc2cc(N3CCSCC3)nc(NCc3cn(CCCO)nn3)n2)CC1 [Compound 140] | neuroprotection was provided | 54% | 4% | – | – | – |
| OCCCn1cc(CNc2nc(NC3CCNCC3)cc(N3CCCCC3)n2)nn1 [Compound 38] | neuroprotection was provided | 37% | 5% | – | – | – |
| O=P(O)(O)CCN1CCC(Nc2cc(N3CCCCC3)nc(NCc3cn(CCCO)nn3)n2)CC1 [Compound 135] | neuroprotection was provided | 56% | 6% | – | – | – |
| CCn1nnc(CNc2nc(NC3CCN(CCC(=O)OC)CC3)cc(N3CCOCC3)n2)n1 [Compound 100] | neuroprotection was provided | 52% | 3% | – | – | – |
| COCCCn1cc(CNc2nc(NC3CCN(CCC(=O)OC)CC3)cc(N3CCOCC3)n2)nn1 [Compound 62] | neuroprotection was provided | 50% | 3% | – | – | – |
| COC(=O)CCOCCCn1cc(CNc2nc(NC3CCN(CCC(=O)OC)CC3)cc(N3CCOCC3)n2)nn1 [Compound 66] | neuroprotection was provided | 52% | 5% | – | – | – |
| COC(=O)CCOCCCn1cc(CNc2nc(NC3CCN(Cc4ccc(C#N)cc4)CC3)cc(N3CCOCC3)n2)nn1 [Compound 72] | neuroprotection was provided | 45% | 3% | – | – | – |
| COCCCn1cc(CNc2nc(NC3CCNCC3)cc(N3CCOCC3)n2)nn1 [Compound 61] | neuroprotection was provided | 52% | 3% | – | – | – |
| CC(O)Cn1cc(CNc2nc(NC3CCNCC3)cc(N3CCOCC3)n2)nn1 (stereo not shown) [Compound 53] | neuroprotection was provided | 47% | 2% | – | – | – |
| COC(=O)CCN1CCC(Nc2cc(N3CCOCC3)nc(NCc3cn(CCCO)nn3)n2)CC1 [Compound 48] | neuroprotection was provided | 58% | 11% | – | – | – |
| O=P(O)(O)CCN1CCC(Nc2cc(N3CCOCC3)nc(NCc3cn(CCCCO)nn3)n2)CC1 [Compound 117] | neuroprotection was provided | 58% | 11% | – | – | – |
| OCC(CO)Cn1cc(CNc2nc(NC3CCN(Cc4ccccc4)CC3)cc(N3CCOCC3)n2)nn1 [Compound 81] | neuroprotection was provided | 52% | 2% | – | – | – |
| CN1CCN(c2cc(NC3CCNCC3)nc(NCc3cn(CCCO)nn3)n2)CC1 [Compound 41] | neuroprotection was provided | 34% | 3% | – | – | – |
| NCCCn1cc(CNc2nc(NC3CCN(C(=O)CCNC(=O)C4(O)CC(O)C(O)C(O)C4)CC3)cc(N3CCOCC3)n2)nn1 (stereo not shown) [Compound 15] | neuroprotection was provided | 35% | 3% | – | – | – |
| CCCCC(=O)NCCCn1cc(CNc2nc(NC3CCN(CCP(=O)(O)O)CC3)cc(N3CCOCC3)n2)nn1 [Compound 28] | neuroprotection was provided | 53% | 3% | – | – | – |
| OCCCn1cc(CNc2cc(NC3CCNCC3)nc(NCc3cn(CCCO)nn3)n2)nn1 [Compound 108] | neuroprotection was provided | – | 9% | 41% | – | – |
| CN1CCN(c2cc(NCc3cccnc3)nc(NCc3cn(CCCO)nn3)n2)CC1 [Compound 42] | neuroprotection was provided | 34% | 3% | – | – | – |
| COC(=O)CCOCCCn1cc(CNc2nc(NC3CCN(Cc4cccc(C(=O)OC)c4)CC3)cc(N3CCOCC3)n2)nn1 [Compound 68] | neuroprotection was provided | – | 1% | 41% | – | – |
| O=P(O)(O)CCN1CCC(Nc2cc(N3CCOCC3)nc(NCc3cn(CCO)nn3)n2)CC1 [Compound 114] | neuroprotection was provided | 55% | 8% | – | – | – |
| O=P(O)(O)CCN1CCC(Nc2cc(N3CCS(=O)(=O)CC3)nc(NCc3cn(CCCO)nn3)n2)CC1 [Compound 143] | neuroprotection was provided | 57% | 7% | – | – | – |
| COC(=O)c1cccc(CNCCCn2cc(CNc3nc(NC4CCN(Cc5ccccc5)CC4)cc(N4CCOCC4)n3)nn2)c1 [Compound 21] | neuroprotection was provided | 45% | 3% | – | – | – |
| O=C(O)CCN1CCC(Nc2cc(N3CCOCC3)nc(NCc3cn(CC(=O)O)nn3)n2)CC1 [Compound 6] | neuroprotection was provided | – | 3% | 46% | – | – |
| COC(=O)CCCCC(=O)N1CCC(Nc2cc(N3CCOCC3)nc(NCc3cn(CCCOCCC(=O)OC)nn3)n2)CC1 [Compound 73] | neuroprotection was provided | 45% | 3% | – | – | – |
| CC(C)(O)CCn1cc(CNc2nc(NC3CCN(CCP(=O)(O)O)CC3)cc(N3CCOCC3)n2)nn1 [Compound 60] | neuroprotection was provided | 40% | 4% | – | – | – |
| COC(=O)CCOCCCn1cc(CNc2nc(NC3CCN(Cc4ccccc4)CC3)cc(N3CCOCC3)n2)nn1 [Compound 65] | neuroprotection was provided | – | – | – | – | – |
| CC(=O)O[C@H]1C(=O)[C@@]2(C)[C@H]([C@H](OC(=O)c3ccccc3)[C@]3(O)C[C@H](OC(=O)[C@H](O)[C@@H](NC(=O)c4ccccc4)c4ccccc4)C(C)=C1C3(C)C)[C@]1(OC(C)=O)CO[C@@H]1C[C@@H]2O [paclitaxel, reference compound] | – | – | – | – | inhibiting neurite outgrowth | 50%-69 |
| CC(C)NCCCn1cc(CNc2nc(NC3CCNCC3)cc(N3CCOCC3)n2)nn1 [Compound 18] | neuroprotection was provided | 50% | 3% | – | – | – |
| CCOC(=O)CNCCC(=O)N1CCC(Nc2cc(N3CCOCC3)nc(NCc3cn(CCCOCCC(=O)OC)nn3)n2)CC1 [Compound 74] | neuroprotection was provided | 45% | 3% | – | – | – |
| COC(=O)CCOCCCn1cc(CNc2nc(NC3CCN(Cc4ccc5ccccc5c4)CC3)cc(N3CCOCC3)n2)nn1 [Compound 75] | neuroprotection was provided | – | – | – | – | – |

Reference: patent publication US20230085362A1, “PYRIMIDINE COMPOUNDS AND USE THEREOF” (National Health Research Institutes, priority 2021, published 2023)
